# In US20230312550A1, “N-(2-(4-CYANOTHIAZOLIDIN-3-YL)-2-OXOETHYL)-QUINOLINE-4-CARBOXAMIDES” (AstraZeneca AB, priority 2020, published 2023):
# Columns and labels:
# hFAP (M39-A757) = hFAP (M39-A757) (Homo sapiens (Human), UniProt Q12884); assay: hFAP binding assay (surface plasmon resonance); conditions: SPR, 20° C.; for hFAP Binding assay k(off) / hFAP Binding assay k(on): single cycle kinetics; for Kd: n = 1 or geometric mean n = 2-4
# [1] = Metabolic stability in human liver microsomes (HLM); conditions: human
# Description: Metabolic stability in HLM was measured as described in J Comput Aided Mol Des 2015, 29, 795.
# [2] = target: human Fibroblast activation protein alpha (hFAP) (Homo sapiens (Human), UniProt Q12884); assay: hFAP inhibition assay (tight binders); format: biochemical; conditions: Ala-Pro-AMC 20 μM, n = 1 or geometric mean n = 2-6; note: hFAP 2.4 pM
# Sequence of human Fibroblast activation protein alpha (hFAP) (Q12884 38-760): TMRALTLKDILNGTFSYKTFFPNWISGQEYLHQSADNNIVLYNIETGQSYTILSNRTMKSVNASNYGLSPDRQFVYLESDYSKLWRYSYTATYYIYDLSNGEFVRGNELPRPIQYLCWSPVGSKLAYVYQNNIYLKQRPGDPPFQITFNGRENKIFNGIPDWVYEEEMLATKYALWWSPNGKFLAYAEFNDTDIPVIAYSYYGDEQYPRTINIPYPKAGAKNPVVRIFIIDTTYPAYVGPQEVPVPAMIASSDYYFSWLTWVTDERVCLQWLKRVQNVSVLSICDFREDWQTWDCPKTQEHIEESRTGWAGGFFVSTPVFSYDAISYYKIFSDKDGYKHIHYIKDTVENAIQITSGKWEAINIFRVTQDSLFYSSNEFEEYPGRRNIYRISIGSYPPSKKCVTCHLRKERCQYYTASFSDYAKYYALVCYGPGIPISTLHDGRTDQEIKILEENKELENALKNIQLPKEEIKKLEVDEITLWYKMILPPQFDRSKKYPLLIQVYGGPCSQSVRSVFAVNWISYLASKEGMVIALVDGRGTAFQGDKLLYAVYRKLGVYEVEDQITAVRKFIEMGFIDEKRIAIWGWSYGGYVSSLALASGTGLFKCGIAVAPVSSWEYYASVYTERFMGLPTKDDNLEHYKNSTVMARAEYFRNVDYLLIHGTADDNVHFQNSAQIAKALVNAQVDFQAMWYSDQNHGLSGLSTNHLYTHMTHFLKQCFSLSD
# Description: The plates were read on a PHERAstar® reader with excitation 340 nm and emission 460 nm. Data were analyzed in Genedata Screener®. IC50 values were determined by plotting % inhibition versus log compound concentration and using a one site dose response model.
# [3] = target: Prolyl endopeptidase, Prolyl Oligopeptidase (hPREP) (Homo sapiens (Human), UniProt P48147); assay: hPrep inhibition assay; format: biochemical; conditions: hPREP 0.6 nM, Z-Gly-Pro-amino-methylcoumarin 50 μM; read-out: PREP IC50
# Sequence of Prolyl endopeptidase, Prolyl Oligopeptidase (hPREP) (P48147 whole entry): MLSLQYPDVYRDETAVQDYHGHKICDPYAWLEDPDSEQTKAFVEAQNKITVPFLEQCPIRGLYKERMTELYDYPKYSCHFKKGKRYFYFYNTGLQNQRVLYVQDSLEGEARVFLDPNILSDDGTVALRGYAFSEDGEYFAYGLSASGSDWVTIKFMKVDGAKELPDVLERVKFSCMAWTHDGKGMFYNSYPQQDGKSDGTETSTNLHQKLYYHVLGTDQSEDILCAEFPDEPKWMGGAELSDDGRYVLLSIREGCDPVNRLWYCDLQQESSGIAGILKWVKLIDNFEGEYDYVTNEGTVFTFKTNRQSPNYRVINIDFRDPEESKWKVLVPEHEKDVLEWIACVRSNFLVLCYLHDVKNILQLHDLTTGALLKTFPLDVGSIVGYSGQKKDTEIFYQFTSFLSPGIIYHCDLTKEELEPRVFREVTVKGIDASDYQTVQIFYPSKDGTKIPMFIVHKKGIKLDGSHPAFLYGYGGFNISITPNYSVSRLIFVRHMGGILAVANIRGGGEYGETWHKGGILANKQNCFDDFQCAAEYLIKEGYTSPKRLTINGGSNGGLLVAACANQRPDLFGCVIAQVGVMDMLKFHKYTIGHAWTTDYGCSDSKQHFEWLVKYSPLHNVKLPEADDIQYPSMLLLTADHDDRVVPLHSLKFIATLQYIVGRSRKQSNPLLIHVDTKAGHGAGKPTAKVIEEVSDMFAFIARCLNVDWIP
# Description: Compounds were tested in a biochemical inhibition assay using Prolyl endopeptidase, Prolyl Oligopeptidase (hPREP) enzyme at 0.6 nM FAC (R&D Systems, 4308-SE) and the substrate Z-Gly-Pro-amino-methylcoumarin (Bachem, I-1145) at 50 μM FAC. 384 Low volume black plates (Greiner #784076) were used. […] Plates were incubated for 15 min at rt in dark. 4 μL, 100 μM substrate solution (25 mM Tris HCl, 250 mM NaCl, 0.01% Triton X-100, 5 mM Glutathione, pH 7.5) was added to each well. Plates were centrifuged at 1000 rpm and incubated for 20 min at rt in dark. The plates were read on a PHERAstar® reader with excitation 340 nm and emission 460 nm. Data were analyzed in Genedata Screener®. IC50 values were determined by plotting % inhibition versus log compound concentration and using a one site dose response model.
# [4] = Metabolic stability in rat hepatocytes (rHep); conditions: n = 1 or geometric mean of n = 2-3
# [5] = kinetic from dmso stock, Solubility, kinetic solubility, n = 1 or average of n = 2-3
# [6] = HLM CLint, n = 1 or average of n = 2-3
# Description for Kinetic solubility: Kinetic solubility was measured as described in Comput Aided Mol Des 2015, 29, 795.
# Sequence of hFAP (M39-A757) (Q12884 39-757): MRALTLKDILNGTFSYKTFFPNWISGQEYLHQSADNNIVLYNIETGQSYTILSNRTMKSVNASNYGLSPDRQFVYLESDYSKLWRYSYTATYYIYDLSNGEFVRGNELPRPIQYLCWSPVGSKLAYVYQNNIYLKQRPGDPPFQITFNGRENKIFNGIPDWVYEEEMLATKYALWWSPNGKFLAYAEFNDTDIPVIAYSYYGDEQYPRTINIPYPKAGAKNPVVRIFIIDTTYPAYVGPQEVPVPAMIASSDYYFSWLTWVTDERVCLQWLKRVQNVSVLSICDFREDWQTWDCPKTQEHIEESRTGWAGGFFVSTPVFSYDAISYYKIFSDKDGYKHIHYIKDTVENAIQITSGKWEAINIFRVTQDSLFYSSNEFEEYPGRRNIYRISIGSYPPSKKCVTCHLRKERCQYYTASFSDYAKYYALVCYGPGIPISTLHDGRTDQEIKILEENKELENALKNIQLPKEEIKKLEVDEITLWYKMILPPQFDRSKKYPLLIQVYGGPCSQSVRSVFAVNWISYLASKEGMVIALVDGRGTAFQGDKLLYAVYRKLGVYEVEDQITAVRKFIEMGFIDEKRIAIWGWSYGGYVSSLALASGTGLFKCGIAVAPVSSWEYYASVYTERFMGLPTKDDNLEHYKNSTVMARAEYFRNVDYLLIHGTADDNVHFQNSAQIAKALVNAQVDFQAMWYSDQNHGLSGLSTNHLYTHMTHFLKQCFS
solubility (Kinetic solubility; [5]) [µM],hFAP Binding assay k(off) (hFAP (M39-A757)) [s⁻¹],hFAP Binding assay k(on) (hFAP (M39-A757)) [M⁻¹ s⁻¹],Kd (hFAP (M39-A757)) [nM],"microsomal CLint [1, 6] [µL/min/mg]",IC50 [2] [nM],IC50 [3] [nM],rHep CLint [4] [μL/min/1E6],"solubility (Kinetic solubility; kinetic solubility, n = 1 or average of n = 2-3) [µM]","microsomal CLint ([1]; liver microsomes, HLM CLint, n = 1 or average of n = 2-3) [µL/min/mg]",SMILES,solubility (Kinetic solubility; kinetic from dmso stock) [µM],microsomal CLint [1] [µL/min/mg]
< 0.16,0.00032,670000,0.48,37,0.068,390,18,–,–,"N#C[C@@H]1CSCN1C(=O)CNC(=O)c1ccnc2ccc(-n3ccc(-c4ccccc4)c3)cc12 [Example 218, (R)—N-(2-(4-Cyanothiazolidin-3-yl)-2-oxoethyl)-6-(3-phenyl-1H-pyrrol-1-yl)quinoline-4-carboxamide]",–,–
71,0.000080,620000,0.13,210,0.13,620,74,–,–,"CC1(C2CC2)CN(c2ccc3nccc(C(=O)NCC(=O)N4CSC[C@H]4C#N)c3c2)C1 [Example 134, (R)—N-(2-(4-Cyanothiazolidin-3-yl)-2-oxoethyl)-6-(3-cyclopropyl-3-methylazetidin-1-yl)quinoline-4-carboxamide]",–,–
< 1.6,0.000026,2500000,0.01,57,0.076,86,51,–,–,"N#C[C@@H]1CSCN1C(=O)CNC(=O)c1ccnc2ccc(N3CCC(F)(c4ccccc4)CC3)cc12 [Example 223, (R)—N-(2-(4-Cyanothiazolidin-3-yl)-2-oxoethyl)-6-(4-fluoro-4-phenyl-piperidin-1-yl)quinoline-4-carboxamide]",–,–
39,0.00016,2600000,0.064,32,0.1,840,7.7,–,–,"CC(F)(F)CC1CN(c2ccc3nccc(C(=O)NCC(=O)N4CSC[C@H]4C#N)c3c2)C1 [Example 140, (R)—N-(2-(4-Cyanothiazolidin-3-yl)-2-oxoethyl)-6-(3-(2,2-difluoropropyl)-azetidin-1-yl)quinoline-4-carboxamide]",–,–
20,–,–,0.17,41,0.1,360,21,–,–,"N#C[C@@H]1CSCN1C(=O)CNC(=O)c1ccnc2ccc(-n3ccc(C(F)(F)F)n3)cc12 [Example 118, (R)—N-(2-(4-Cyanothiazolidin-3-yl)-2-oxoethyl)-6-(3-(trifluoromethyl)-1H-pyrazol-1-yl)quinoline-4-carboxamide]",–,–
–,–,–,0.077,110,0.11,470,37,2.2,–,"C[C@@H]1CN(c2ccc3nccc(C(=O)NCC(=O)N4CSC[C@H]4C#N)c3c2)C[C@H]1C (single isomer, unassigned) [Example 225, N-(2-((R)-4-Cyanothiazolidin-3-yl)-2-oxoethyl)-6-((3R*,4R*)-3,4-dimethylpyrrolidin-1-yl)quinoline-4-carboxamide]",–,–
270,0.000056,370000,0.15,130,0.054,940,41,–,–,"Cc1cc2nccc(C(=O)NCC(=O)N3CSC[C@H]3C#N)c2cc1N1CCOCC1 [Example 10, (R)—N-(2-(4-Cyanothiazolidin-3-yl)-2-oxoethyl)-7-methyl-6-morpholino-quinoline-4-carboxamide]",–,–
480,0.000068,1100000,0.066,78,0.046,460,44,–,–,"N#C[C@@H]1CSCN1C(=O)CNC(=O)c1ccnc2ccc(N3C[C@H]4CCC[C@@H](C3)O4)cc12 [Example 194, 6-((1R,5S)-9-Oxa-3-azabicyclo[3.3.1]nonan-3-yl)-N-(2-((R)-4-cyano-thiazolidin-3-yl)-2-oxoethyl)quinoline-4-carboxamide]",–,–
170,0.00095,560000,1.3,110,0.2,590,3,–,–,"N#C[C@@H]1CSCN1C(=O)CNC(=O)c1ccnc2c(Cl)cc(N3CCOCC3)cc12 [Example 180, (R)-8-Chloro-N-(2-(4-cyanothiazolidin-3-yl)-2-oxoethyl)-6-morpholino-quinoline-4-carboxamide]",–,–
2.5,0.0002,2400000,0.083,160,0.11,230,75,–,–,"N#C[C@@H]1CSCN1C(=O)CNC(=O)c1ccnc2ccc(-n3ccc4c3CCCC4)cc12 [Example 219, (R)—N-(2-(4-Cyanothiazolidin-3-yl)-2-oxoethyl)-6-(4,5,6,7-tetrahydro-1H-indol-1-yl)quinoline-4-carboxamide]",–,–
16,–,–,0.18,–,0.19,540,11,–,54,"N#C[C@@H]1CSCN1C(=O)CNC(=O)c1ccnc2ccc(N3CC(COC(F)(F)F)C3)cc12 [Example 130, (R)—N-(2-(4-Cyanothiazolidin-3-yl)-2-oxoethyl)-6-(3-((trifluoromethoxy)-methyl)azetidin-1-yl)quinoline-4-carboxamide]",–,–
3.4,0.0002,6600000,0.031,53,0.059,420,12,–,–,"CC(C)C1CN(c2ccc3nccc(C(=O)NCC(=O)N4CSC[C@H]4C#N)c3c2)C1 [Example 148, (R)—N-(2-(4-Cyanothiazolidin-3-yl)-2-oxoethyl)-6-(3-isopropylazetidin-1-yl)quinoline-4-carboxamide]",–,–
13,0.00014,270000,0.52,38,0.41,3700,8.5,–,–,"N#C[C@@H]1CSCN1C(=O)CNC(=O)c1ccnc2ccc(N3CC(OC(F)(F)F)C3)cc12 [Example 132, (R)—N-(2-(4-Cyanothiazolidin-3-yl)-2-oxoethyl)-6-(3-(trifluoromethoxy)-azetidin-1-yl)quinoline-4-carboxamide]",–,–

SMILES,solubility (Kinetic solubility; [5]) [µM],hFAP Binding assay k(off) (hFAP (M39-A757)) [s⁻¹],hFAP Binding assay k(on) (hFAP (M39-A757)) [M⁻¹ s⁻¹],Kd (hFAP (M39-A757)) [nM],"microsomal CLint [1, 6] [µL/min/mg]",IC50 [2] [nM],IC50 [3] [nM],rHep CLint [4] [μL/min/1E6],"solubility (Kinetic solubility; kinetic solubility, n = 1 or average of n = 2-3) [µM]","microsomal CLint ([1]; liver microsomes, HLM CLint, n = 1 or average of n = 2-3) [µL/min/mg]",solubility (Kinetic solubility; kinetic from dmso stock) [µM],microsomal CLint [1] [µL/min/mg]
"CC1CC2(C1)CN(c1ccc3nccc(C(=O)NCC(=O)N4CSC[C@H]4C#N)c3c1)C2 [Example 149, (R)—N-(2-(4-Cyanothiazolidin-3-yl)-2-oxoethyl)-6-(6-methyl-2-azaspiro[3.3]heptan-2-yl)quinoline-4-carboxamide]",–,0.000039,4800000,0.0087,–,0.097,470,7,–,–,130,56
"N#C[C@@H]1CSCN1C(=O)CNC(=O)c1ccnc2ccc(N3CC4(CCCC4)C3)cc12 [Example 139, (R)—N-(2-(4-Cyanothiazolidin-3-yl)-2-oxoethyl)-6-(2-azaspiro[3.4]octan-2-yl)quinoline-4-carboxamide]",–,–,–,0.015,–,0.32,1000,13,–,–,50,72
"N#C[C@@H]1CSCN1C(=O)CNC(=O)c1ccnc2ccc(N3CCC4(CCOCC4)CC3)cc12 [Example 162, (R)—N-(2-(4-cyanothiazolidin-3-yl)-2-oxoethyl)-6-(3-oxa-9-azaspiro[5.5]undecan-9-yl)quinoline-4-carboxamide]",–,0.000028,1900000,0.018,–,0.053,280,3.4,–,–,140,44
"N#C[C@@H]1CSCN1C(=O)CNC(=O)c1ccnc2ccc(N3CCC4(CC3)OCCCO4)cc12 [Example 227, (R)—N-(2-(4-cyanothiazolidin-3-yl)-2-oxoethyl)-6-(1,5-dioxa-9-azaspiro[5.5]undecan-9-yl)quinoline-4-carboxamide]",–,–,–,–,–,–,600,2.8,–,–,852,17
